The test system of assay [1] is Ramos cells. Nature of the assay: Ramos cell death assay (cytotoxicity). Particulars: Homo sapiens. Format: cell-based. As to the method: (§1) Representative compounds were tested for cytotoxicity in Ramos cells and inhibitory activity against ATPase. The Ramos cell death assay and ATPase inhibition assay were conducted as described in K. M. Johnson et al. Chemistry & Biology 2005, 12, 485-496.

For assay [2], the target named is T1, ATPase (Bos taurus, UniProt P13621).
T1 construct: from tissue; host or cells: bovine sub-mitochondrial particles (SMPs)
Nature of the assay: ATPase inhibition assay. It counts as biochemical. The protocol:
as §1

pIC50: −log10 of the molar value. Like-named read-outs stand apart in the source and are kept apart here. Bounds are passed on as bounds.

In general, EC50 refers to the midpoint of the concentration-response curve. As a reminder, the pIC50 is −log10 of the IC50, conventionally taken in molar units. As for `CCn1c(=O)[nH]c2ccc(C3=NC(Cc4ccc5ccccc5c4)C(=O)N(C)c4ccc(Cl)cc43)cc21` (stereo not drawn) [Compound I-1, 7-Chloro-5-(3-ethyl-2-oxo-2,3-dihydro-1H-benzo[d]imidazol-5-yl)-1-methyl-3-(naphthalen-2-ylmethyl)-1H-benzo[e][1,4]diazepin-2(3H)-one], the EC50 in assay [1] was greater than 7 µM. Besides, in assay [2] (read-out: ATPase IC50), the negative-log IC50 (pIC50) is greater than 5.15.
On to `Cn1c(=O)[nH]c2ccc(C3=NC(Cc4ccccc4Cl)C(=O)Nc4ccc(Cl)cc43)cc21` (stereo not drawn) [Compound I-2, 7-Chloro-3-(2-chlorobenzyl)-5-(3-methyl-2-oxo-2,3-dihydro-1H-benzo[d]imidazol-5-yl)-1H-benzo[e][1,4]diazepin-2(3H)-one], for which the 50% effective concentration (EC50) in assay [1] was less than 7 µM. Besides, the negative logarithm of the IC50 (pIC50) in assay [2] was greater than 5.15.
In the case of `O=C(O)Cn1c(=O)[nH]c2ccc(C3=NC(Cc4ccccc4Cl)C(=O)Nc4ccc(Cl)cc43)cc21` (stereo not drawn) [Compound I-3, 2-(6-(7-Chloro-3-(2-chlorobenzyl)-2-oxo-2,3-dihydro-1H-benzo[e][1,4]diazepin-5-yl)-2-oxo-2,3-dihydro-1H-benzo[d]imidazol-1-yl)acetic acid], the EC50 in assay [1] is greater than 7 µM. For the same compound, the pIC50 in assay [2] (read-out: ATPase IC50) was less than 5.15.
The matching figures for `CNC(=O)Cn1c(=O)[nH]c2ccc(C3=NC(Cc4ccccc4Cl)C(=O)Nc4ccc(Cl)cc43)cc21` (stereo not drawn) [Compound I-4, 2-(6-(7-Chloro-3-(2-chlorobenzyl)-2-oxo-2,3-dihydro-1H-benzo[e][1,4]diazepin-5-yl)-2-oxo-2,3-dihydro-1H-benzo[d]imidazol-1-yl)-N-methylacetamide]: greater than 7 µM and less than 5.15.
In the same order, the values of `O=C1Nc2ccc(Cl)cc2C(c2ccc3[nH]c(=O)n(CCCO)c3c2)=NC1Cc1ccccc1Cl` (stereo not drawn) [Compound I-5, 7-Chloro-3-(2-chlorobenzyl)-5-(3-(3-hydroxypropyl)-2-oxo-2,3-dihydro-1H-benzo[d]imidazol-5-yl)-1H-benzo[e][1,4]diazepin-2(3H)-one] are less than 7 µM and greater than 5.15.
The matching figures for `O=C1Nc2ccc(Cl)cc2C(c2ccc3[nH]c(=O)n(CCO)c3c2)=NC1Cc1ccccc1Cl` (stereo not drawn) [Compound I-6, 7-Chloro-3-(2-chlorobenzyl)-5-(3-(2-hydroxyethyl)-2-oxo-2,3-dihydro-1H-benzo[d]imidazol-5-yl)-1H-benzo[e][1,4]diazepin-2(3H)-one]: less than 7 µM and less than 5.15.
With `CN1C(=O)C(Cc2ccccc2Cl)N=C(c2ccc3[nH]c(=O)n(CCCO)c3c2)c2cc(Cl)ccc21` (stereo not drawn) [Compound I-7, 7-Chloro-3-(2-chlorobenzyl)-5-(3-(3-hydroxypropyl)-2-oxo-2,3-dihydro-1H-benzo[d]imidazol-5-yl)-1-methyl-1H-benzo[e][1,4]diazepin-2(3H)-one], the EC50 in assay [1] is greater than 7 µM. Further, the pIC50 in assay [2] (read-out: ATPase IC50) was greater than 5.15.
In turn, `Cn1c(=O)[nH]c2ccc(C3=NC(Cc4ccccc4Cl)C(=O)N(CCO)c4ccc(Cl)cc43)cc21` (stereo not drawn) [Compound I-8, 7-Chloro-3-(2-chlorobenzyl)-1-(2-hydroxyethyl)-5-(3-methyl-2-oxo-2,3-dihydro-1H-benzo[d]imidazol-5-yl)-1H-benzo[e][1,4]diazepin-2(3H)-one] came in with an EC50 in assay [1] greater than 7 µM. Moreover, the negative-log IC50 (pIC50) in assay [2] (read-out: ATPase IC50) is greater than 5.15.
The compound `COc1cc(Cl)cc2c1NC(=O)C(Cc1ccccc1Cl)N=C2c1ccc2[nH]c(=O)n(C)c2c1` (stereo not drawn) [Compound I-9, 7-Chloro-3-(2-chlorobenzyl)-9-methoxy-5-(3-methyl-2-oxo-2,3-dihydro-1H-benzo[d]imidazol-5-yl)-1H-benzo[e][1,4]diazepin-2(3H)-one] returned an EC50 in assay [1] of less than 7 µM. Also, the pIC50 in assay [2] (read-out: ATPase IC50) is greater than 5.15.
The matching figures for `Cn1c(=O)[nH]c2ccc(C3=NC(Cc4ccccc4Cl)C(=O)Nc4c(O)cc(Cl)cc43)cc21` (stereo not drawn) [Compound I-10, 7-Chloro-3-(2-chlorobenzyl)-9-hydroxy-5-(3-methyl-2-oxo-2,3-dihydro-1H-benzo[d]imidazol-5-yl)-1H-benzo[e][1,4]diazepin-2(3H)-one]: greater than 7 µM and greater than 5.15.
In the same order, the values of `CN1C(=O)C(Cc2ccccc2Cl)N=C(c2ccc3[nH]c(=O)n(C)c3c2)c2cc(Cl)ccc21` (stereo not drawn) [Compound I-11, 7-Chloro-3-(2-chlorobenzyl)-1-methyl-5-(3-methyl-2-oxo-2,3-dihydro-1H-benzo[d]imidazol-5-yl)-1H-benzo[e][1,4]diazepin-2(3H)-one] are greater than 7 µM and greater than 5.15.
The matching figures for `Cn1c(=O)[nH]c2ccc(C3=NC(Cc4ccccc4Cl)C(=O)Nc4c(F)cc(Cl)cc43)cc21` (stereo not drawn) [Compound I-12, 7-Chloro-3-(2-chlorobenzyl)-9-fluoro-5-(3-methyl-2-oxo-2,3-dihydro-1H-benzo[d]imidazol-5-yl)-1H-benzo[e][1,4]diazepin-2(3H)-one]: greater than 7 µM and greater than 5.15.
In turn, `Cn1c(=O)[nH]c2ccc(C3=NC(Cc4ccc(Cl)cc4)C(=O)Nc4ccc(Cl)cc43)cc21` (stereo not drawn) [Compound I-13, 7-Chloro-3-(4-chlorobenzyl)-5-(3-methyl-2-oxo-2,3-dihydro-1H-benzo[d]imidazol-5-yl)-1H-benzo[e][1,4]diazepin-2(3H)-one] showed a concentration for a half-maximal effect (EC50) in assay [1] of less than 7 µM. The compound also gave a pIC50 in assay [2] greater than 5.15.
Take `CCn1c(=O)[nH]c2cc(C3=NC(Cc4ccc5ccccc5c4)C(=O)Nc4ccc(Cl)cc43)ccc21` (stereo not drawn) [Compound I-14]: the EC50 in assay [1] is less than 7 µM. In assay [2] (read-out: ATPase IC50), the negative logarithm of the IC50 (pIC50) was greater than 5.15.
Regarding `O=C1Nc2ccc(F)cc2C(c2ccc3[nH]c(=O)[nH]c3c2)=NC1Cc1ccccc1Cl` (stereo not drawn) [II-1, 3-(2-Chlorobenzyl)-7-fluoro-5-(2-oxo-2,3-dihydro-1H-benzo[d]imidazol-5-yl)-1H-benzo[e][1,4]diazepin-2(3H)-one], the EC50 in assay [1] was less than 7 µM. Besides, the pIC50 in assay [2] was less than 5.15.
With `CCc1ccc(CC2N=C(c3ccc(O)c(CC(N)=O)c3)c3cc(Cl)ccc3NC2=O)cc1CC` (stereo not drawn) [III-1, 2-(5-(7-Chloro-3-(3,4-diethylbenzyl)-2-oxo-2,3-dihydro-1H-benzo[e][1,4]diazepin-5-yl)-2-hydroxyphenyl)acetamide], the EC50 in assay [1] was less than 7 µM. Besides, the pIC50 in assay [2] (read-out: ATPase IC50) is less than 5.15.
In assay [1], `Cc1cc(C2=NC(Cc3cc(F)ccc3Cl)C(=O)Nc3ccc(Cl)cc32)ccc1O` (stereo not drawn) [III-2, 7-Chloro-3-(2-chloro-5-fluorobenzyl)-5-(4-hydroxy-3-methylphenyl)-1H-benzo[e][1,4]diazepin-2(3H)-one] returned a concentration for a half-maximal effect (EC50) of less than 7 µM. Besides, the pIC50 in assay [2] was greater than 5.15.
In the same order, the values of `Cc1cc(C2=NC(Cc3ccc(Cl)cc3)C(=O)Nc3ccc(Cl)cc32)ccc1O` (stereo not drawn) [III-3, 7-Chloro-3-(4-chlorobenzyl)-5-(4-hydroxy-3-methylphenyl)-1H-benzo[e][1,4]diazepin-2(3H)-one] are less than 7 µM and greater than 5.15.
Turning to `Cc1cc(C2=NC(Cc3ccc(F)cc3Cl)C(=O)Nc3ccc(Cl)cc32)ccc1O` (stereo not drawn) [III-4, 7-Chloro-3-(2-chloro-4-fluorobenzyl)-5-(4-hydroxy-3-methylphenyl)-1H-benzo[e][1,4]diazepin-2(3H)-one], in assay [1], the EC50 is less than 7 µM. Further, the negative-log IC50 (pIC50) in assay [2] is greater than 5.15.
In the same order, the values of `Cc1cc(C2=NC(Cc3ccccc3C(F)(F)F)C(=O)Nc3ccc(Cl)cc32)ccc1O` (stereo not drawn) [III-5, 7-Chloro-5-(4-hydroxy-3-methylphenyl)-3-(2-(trifluoromethyl)benzyl)-1H-benzo[e][1,4]diazepin-2(3H)-one] are less than 7 µM and greater than 5.15.
The matching figures for `Cc1cc(C2=NC(Cc3ccc(C(F)(F)F)cc3)C(=O)Nc3ccc(Cl)cc32)ccc1O` (stereo not drawn) [III-6, 7-Chloro-5-(4-hydroxy-3-methylphenyl)-3-(4-(trifluoromethyl)benzyl)-1H-benzo[e][1,4]diazepin-2(3H)-one]: greater than 7 µM and less than 5.15.
`Cn1c(=O)[nH]c2ccc(C3=N[C@H](Cc4ccccc4Cl)C(=O)Nc4ccc(Cl)cc43)cc21` [IV-1, (R)-7-Chloro-3-(2-chlorobenzyl)-5-(3-methyl-2-oxo-2,3-dihydro-1H-benzo[d]imidazol-5-yl)-1H-benzo[e][1,4]diazepin-2(3H)-one] displayed an EC50 in assay [1] of less than 7 µM. Also, in assay [2], the pIC50 was greater than 5.15.
In the same order, the values of `Cn1c(=O)[nH]c2ccc(C3=N[C@@H](Cc4ccccc4Cl)C(=O)Nc4ccc(Cl)cc43)cc21` [IV-2, (S)-7-chloro-3-(2-chlorobenzyl)-5-(3-methyl-2-oxo-2,3-dihydro-1H-benzo[d]imidazol-5-yl)-1H-benzo[e][1,4]diazepin-2(3H)-one] are less than 7 µM and greater than 5.15.
Compound `O=C1Nc2ccc(Cl)cc2C(c2ccc3[nH]c(=O)n(CCCO)c3c2)=N[C@@H]1Cc1ccccc1Cl` [IV-3, (R)-7-chloro-3-(2-chlorobenzyl)-5-(3-(3-hydroxypropyl)-2-oxo-2,3-dihydro-1H-benzo[d]imidazol-5-yl)-1H-benzo[e][1,4]diazepin-2(3H)-one] registered an EC50 in assay [1] of less than 7 µM. Besides, the negative-log IC50 (pIC50) in assay [2] (read-out: ATPase IC50) was greater than 5.15.
In the same order, the values of `O=C1Nc2ccc(Cl)cc2C(c2ccc3[nH]c(=O)n(CCCO)c3c2)=N[C@H]1Cc1ccccc1Cl` [IV-4, (S)-7-Chloro-3-(2-chlorobenzyl)-5-(3-(3-hydroxypropyl)-2-oxo-2,3-dihydro-1H-benzo[d]imidazol-5-yl)-1H-benzo[e][1,4]diazepin-2(3H)-one] are less than 7 µM and greater than 5.15.
`Cc1cc(C2=N[C@@H](Cc3ccccc3Cl)C(=O)Nc3ccc(Cl)cc32)ccc1O` [IV-5, (S)-7-Chloro-3-(2-chlorobenzyl)-5-(4-hydroxy-3-methylphenyl)-1H-benzo[e][1,4]diazepin-2(3H)-one] returned a 50% effective concentration (EC50) in assay [1] of less than 7 µM. The same compound had a negative logarithm of the IC50 (pIC50) in assay [2] greater than 5.15.
The matching figures for `Cc1cc(C2=N[C@H](Cc3ccccc3Cl)C(=O)Nc3ccc(Cl)cc32)ccc1O` [IV-6, (R)-7-Chloro-3-(2-chlorobenzyl)-5-(4-hydroxy-3-methylphenyl)-1H-benzo[e][1,4]diazepin-2(3H)-one]: less than 7 µM and greater than 5.15.

The values above are taken from US8673897B2, “Benzodiazepinone compounds and methods of treatment using same” (The Regents of the University of Michigan, priority 2009, dated 2014).
